Counter-ions that a name gives are not always drawn.
Key:
PDGFR beta [1] = molecular target: T1, PDGFR beta (Homo sapiens, UniProt P09619); assay: Phospho PDGFR LICOR Cell Assay (Example B); type: cell-based; conditions: averaged IC50; PDGFR beta phosphorylation in HS27 human fibroblast cell line, PDGF-BB stimulation 10 minutes, normalized to total ERK
T1 construct: endogenous in cells; host or cells: HS27 human fibroblast cell line
How it was run: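 Read-out is in-cell phospho-PDGFRβ/total-ERK infrared immunofluorescence in HS27 fibroblasts. Cells got 1 h compound exposure before a 10 min PDGF-BB challenge. A 4-parameter logistic fit gave IC50 as the concentration yielding 50 percent of control.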

PDGFR beta [2] = molecular target: T1, PDGFR beta; assay: Phospho PDGFR Cell Assay, sandwich ELISA (Example A); type: cell-based; conditions: averaged IC50, PDGFR beta phosphorylation in HS27 human fibroblast cell line, PDGF-BB stimulation 5 minutes
Description: Compounds were screened for inhibition of PDGFR beta phosphorylation in the HS27 human fibroblast cell line. Cells were seeded into a 96 well tissue culture plate, then incubated overnight in a 37° C., 5% CO2 incubator. The following day, cells were treated for one hour with test compound dilutions. After stimulation with PDGF-BB ligand for 5 minutes, cells were lysed and added to a sandwich ELISA plate from R&D Systems to detect levels of phospho PDGFR beta. A standard 4-parameter logistic model was fit to the inhibitor dose response curves, with the IC50 being defined as the concentration of inhibitor giving 50 percent of control (POC).

cFMS = molecular target: T2, cFMS (Homo sapiens, UniProt P07333); assay: cFMS Cell-Based Assay (Example C); conditions: averaged IC50; phospho-cFMS in THP-1 cells stimulated with 250 ng/mL recombinant human MCSF; read-out: cFMS Cell ELISA IC50
T2 construct: THP-1 cells (human acute monocytic leukemia cell line) were serum-starved for 4 hours; endogenous in cells; host or cells: THP-1 cells (human acute monocytic leukemia cell line)
T2 sequence (P07333 20-972): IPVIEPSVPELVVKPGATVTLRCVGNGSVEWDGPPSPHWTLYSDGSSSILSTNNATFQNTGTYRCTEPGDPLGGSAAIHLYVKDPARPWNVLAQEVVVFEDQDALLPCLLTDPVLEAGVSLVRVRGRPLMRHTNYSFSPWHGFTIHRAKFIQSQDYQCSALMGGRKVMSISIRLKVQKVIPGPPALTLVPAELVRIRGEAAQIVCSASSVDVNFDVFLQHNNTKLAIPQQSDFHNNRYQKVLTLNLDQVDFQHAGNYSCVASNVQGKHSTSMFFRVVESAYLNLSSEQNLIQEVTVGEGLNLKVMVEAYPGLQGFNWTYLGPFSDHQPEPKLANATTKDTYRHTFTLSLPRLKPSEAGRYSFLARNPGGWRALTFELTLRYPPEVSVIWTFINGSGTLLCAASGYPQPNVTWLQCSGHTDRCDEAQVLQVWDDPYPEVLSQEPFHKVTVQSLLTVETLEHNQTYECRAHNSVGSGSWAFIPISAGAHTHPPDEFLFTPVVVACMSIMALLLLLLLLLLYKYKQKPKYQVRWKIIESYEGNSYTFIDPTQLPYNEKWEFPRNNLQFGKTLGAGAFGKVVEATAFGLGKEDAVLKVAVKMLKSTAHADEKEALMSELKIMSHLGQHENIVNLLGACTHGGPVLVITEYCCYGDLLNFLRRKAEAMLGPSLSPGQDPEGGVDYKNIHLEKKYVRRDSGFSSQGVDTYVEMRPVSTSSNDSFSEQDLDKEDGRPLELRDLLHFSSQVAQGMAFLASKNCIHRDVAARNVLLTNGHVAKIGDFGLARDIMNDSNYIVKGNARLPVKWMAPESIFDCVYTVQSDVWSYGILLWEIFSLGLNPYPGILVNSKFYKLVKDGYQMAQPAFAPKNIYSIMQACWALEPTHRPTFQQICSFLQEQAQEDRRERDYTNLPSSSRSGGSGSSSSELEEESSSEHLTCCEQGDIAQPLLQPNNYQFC
How it was run: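 Phosphotyrosine on cFMS, captured from lysates and quantified by ELISA, reads receptor activation after 1 min of 250 ng/mL human MCSF. Beforehand, THP-1 cells were serum-starved for 4 h and exposed to compound for 1 h (9 points, 3-fold, typically up to 5,000 nM). IC50 from a 4-parameter logistic fit as 50 percent of control.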

c-KIT = molecular target: T3, c-KIT (Homo sapiens, UniProt P10721); assay: c-KIT Cell-Based Assay (Example D); conditions: averaged IC50; phospho-c-KIT in M-07e cells stimulated with 150 ng/ml recombinant human SCF; read-out: cKIT Cell ELISA IC50
T3 construct: M-07e cells (human acute megakaryoblastic leukemia cell line) were serum-starved for 4 hours; endogenous in cells; host or cells: M-07e cells (human acute megakaryoblastic leukemia cell line)
T3 sequence (P10721 26-976): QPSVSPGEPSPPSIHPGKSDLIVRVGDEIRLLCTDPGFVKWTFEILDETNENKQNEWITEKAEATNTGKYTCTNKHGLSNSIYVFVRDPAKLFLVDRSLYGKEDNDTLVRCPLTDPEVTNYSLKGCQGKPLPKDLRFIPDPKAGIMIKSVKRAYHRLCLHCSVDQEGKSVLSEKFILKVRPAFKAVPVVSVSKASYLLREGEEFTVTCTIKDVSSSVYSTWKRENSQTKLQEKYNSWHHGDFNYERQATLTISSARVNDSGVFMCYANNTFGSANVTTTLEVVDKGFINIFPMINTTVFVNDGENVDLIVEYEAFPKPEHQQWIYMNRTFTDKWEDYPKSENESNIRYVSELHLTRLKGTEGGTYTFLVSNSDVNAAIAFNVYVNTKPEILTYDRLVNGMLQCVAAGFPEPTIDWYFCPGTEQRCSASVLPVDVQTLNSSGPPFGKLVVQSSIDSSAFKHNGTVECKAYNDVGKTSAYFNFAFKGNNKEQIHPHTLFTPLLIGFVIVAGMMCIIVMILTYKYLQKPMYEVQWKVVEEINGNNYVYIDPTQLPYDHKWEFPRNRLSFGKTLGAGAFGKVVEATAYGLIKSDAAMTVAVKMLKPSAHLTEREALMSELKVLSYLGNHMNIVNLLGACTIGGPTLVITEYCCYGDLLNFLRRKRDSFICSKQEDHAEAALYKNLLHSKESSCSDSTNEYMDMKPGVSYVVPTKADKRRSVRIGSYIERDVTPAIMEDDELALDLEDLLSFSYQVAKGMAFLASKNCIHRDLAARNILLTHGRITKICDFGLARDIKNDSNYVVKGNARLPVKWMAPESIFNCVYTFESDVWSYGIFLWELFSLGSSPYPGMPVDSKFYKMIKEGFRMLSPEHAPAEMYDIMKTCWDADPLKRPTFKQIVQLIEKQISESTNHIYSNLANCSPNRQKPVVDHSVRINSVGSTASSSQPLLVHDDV
How it was run: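 Phospho-c-KIT ELISA readout, calibrated with purified phospho-SCF R, gave IC50 (4-parameter fit, 50% of control). Before lysis, M-07e cells were starved 4 h, exposed 1 h to a 9-point 3-fold series (highest usually 5,000 nM), and stimulated with 150 ng/ml SCF for 4 min.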

T1 sequence (P09619 33-1106): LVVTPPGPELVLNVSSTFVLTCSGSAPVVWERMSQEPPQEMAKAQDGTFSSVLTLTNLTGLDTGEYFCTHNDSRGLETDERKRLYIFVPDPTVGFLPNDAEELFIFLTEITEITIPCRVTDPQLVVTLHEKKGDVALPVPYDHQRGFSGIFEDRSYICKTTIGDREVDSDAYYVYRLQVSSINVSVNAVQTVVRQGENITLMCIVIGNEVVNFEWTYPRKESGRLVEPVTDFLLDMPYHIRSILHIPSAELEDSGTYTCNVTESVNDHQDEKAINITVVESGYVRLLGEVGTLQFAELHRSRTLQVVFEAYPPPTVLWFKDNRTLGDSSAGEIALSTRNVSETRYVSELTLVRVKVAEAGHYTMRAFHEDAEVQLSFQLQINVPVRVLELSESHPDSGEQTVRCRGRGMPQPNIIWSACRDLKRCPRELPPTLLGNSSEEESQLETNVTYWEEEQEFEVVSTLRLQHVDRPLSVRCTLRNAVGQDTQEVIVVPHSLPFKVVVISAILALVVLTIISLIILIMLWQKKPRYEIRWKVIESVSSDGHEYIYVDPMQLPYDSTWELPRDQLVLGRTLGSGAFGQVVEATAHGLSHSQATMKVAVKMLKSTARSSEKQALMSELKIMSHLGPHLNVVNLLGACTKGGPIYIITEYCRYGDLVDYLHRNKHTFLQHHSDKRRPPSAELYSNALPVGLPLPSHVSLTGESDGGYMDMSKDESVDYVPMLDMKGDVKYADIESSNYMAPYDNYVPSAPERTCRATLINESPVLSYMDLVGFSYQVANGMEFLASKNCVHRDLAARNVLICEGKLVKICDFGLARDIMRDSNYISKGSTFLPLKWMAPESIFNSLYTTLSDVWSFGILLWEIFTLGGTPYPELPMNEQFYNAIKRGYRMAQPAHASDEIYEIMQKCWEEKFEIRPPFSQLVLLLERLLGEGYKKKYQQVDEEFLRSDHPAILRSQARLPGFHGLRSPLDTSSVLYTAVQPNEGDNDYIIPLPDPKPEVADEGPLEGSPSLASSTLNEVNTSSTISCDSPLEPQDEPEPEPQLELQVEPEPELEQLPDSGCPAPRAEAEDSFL

SMILES | IC50 (PDGFR beta [1]) [µM] | IC50 (PDGFR beta [2]) [µM] | IC50 (cFMS) [µM] | IC50 (c-KIT) [µM]
Cc1cccc(Cn2nc(C)c3c(NC(=O)c4cnc5cc(N6CCCC6)ccn45)cccc32)n1 [Example 54, N-(3-methyl-1-((6-methylpyridin-2-yl)methyl)-1H-indazol-4-yl)-7-(pyrrolidin-1-yl)imidazo[1,2-a]pyridine-3-carboxamide dihydrochloride] | – | 0.291 | 0.0088 | 0.387
Cc1cccc(Cn2nc(C)c3c(NC(=O)c4cnc5cc(OCCO)ccn45)cccc32)n1 [Example 57, 7-(2-hydroxyethoxy)-N-(3-methyl-1-((6-methylpyridin-2-yl)methyl)-1H-indazol-4-yl)imidazo[1,2-a]pyridine-3-carboxamide di-hydrochloride salt] | – | 0.658 | 0.0402 | 1.27
Cc1cccc(Cn2nc(C)c3c(NC(=O)c4cnc5ccc(C#N)cn45)cccc32)n1 [Example 62, 6-cyano-N-(3-methyl-1-((6-methylpyridin-2-yl)methyl)-1H-indazol-4-yl)imidazo[1,2-a]pyridine-3-carboxamide] | – | 0.886 | 0.257 | 2.45
Cc1cccc(Cn2nc(C)c3c(NC(=O)c4cnc5cc(-c6cn[nH]c6)ccn45)cccc32)n1 [Example 70, N-(3-methyl-1-((6-methylpyridin-2-yl)methyl)-1H-indazol-4-yl)-7-(1H-pyrazol-4-yl)imidazo[1,2-a]pyridine-3-carboxamide] | – | 0.0992 | 0.0051 | 0.146
Cc1cccc(Cn2nc(C)c3c(NC(=O)c4cnc5cc(CCO)ccn45)cccc32)n1 [Example 73, 7-(2-hydroxyethyl)-N-(3-methyl-1-((6-methylpyridin-2-yl)methyl)-1H-indazol-4-yl)imidazo[1,2-a]pyridine-3-carboxamide] | – | ≥ 1 | 0.0636 | 5
Cc1cccc(Cn2nc(C)c3c(NC(=O)c4cnc5cc(C(C)NCCO)ccn45)cccc32)n1 (centres unmarked) [Example 75, 7-(1-(2-hydroxyethylamino)ethyl)-N-(3-methyl-1-((6-methylpyridin-2-yl)methyl)-1H-indazol-4-yl)imidazo[1,2-a]pyridine-3-carboxamide] | – | ≥ 1 | 0.427 | 5
CC(=O)c1ccn2c(C(=O)Nc3cccc4c3c(C)nn4Cc3cccc(C)n3)cnc2c1 [Example 79, 7-acetyl-N-(3-methyl-1-((6-methylpyridin-2-yl)methyl)-1H-indazol-4-yl)imidazo[1,2-a]pyridine-3-carboxamide] | – | ≥ 1 | 0.0569 | 4.32
COCCOc1ccn2c(C(=O)Nc3cccc4c3c(C)nn4CC3CCCCO3)cnc2c1 (centres unmarked) [Example 82, 7-(2-methoxyethoxy)-N-(3-methyl-1-((tetrahydro-2H-pyran-2-yl)methyl)-1H-indazol-4-yl)imidazo[1,2-a]pyridine-3-carboxamide] | – | 0.309 | 0.122 | 0.458
COCCOc1ccn2c(C(=O)Nc3cccc4c3c(C)nn4CC3CCOCC3)cnc2c1 [Example 83, 7-(2-methoxyethoxy)-N-(3-methyl-1-((tetrahydro-2H-pyran-4-yl)methyl)-1H-indazol-4-yl)imidazo[1,2-a]pyridine-3-carboxamide] | – | ≥ 1 | 0.538 | 5
COCCOc1ccn2c(C(=O)Nc3cccc4c3cnn4C[C@@H]3CCCN(C(=O)OC(C)(C)C)C3)cnc2c1 [Example 117, (R)-tert-butyl 3-((4-(7-(2-methoxyethoxy)imidazo[1,2-a]pyridine-3-carboxamido)-1H-indazol-1-yl)methyl)piperidine-1-carboxylate] | – | 0.0548 | 0.168 | 0.125
O=C(Nc1cccc2c1cnn2Cc1ccccc1)c1cnc2ccc(Br)cn12 [Example 155, N-(1-benzyl-1H-indazol-4-yl)-6-bromoimidazo[1,2-a]pyridine-3-carboxamide] | – | 0.282 | 0.114 | 0.0762
O=C(Nc1cccc2c1cnn2Cc1ccccc1)c1cnc2cc(C(O)CO)ccn12 (centres unmarked) [Example 157, N-(1-benzyl-1H-indazol-4-yl)-7-(1,2-dihydroxyethyl)imidazo[1,2-a]pyridine-3-carboxamide] | – | 0.275 | 0.105 | 0.233
O=C(Nc1cccc2c1cnn2Cc1ccccc1)c1cnc2cc(Br)ccn12 [Example 161, N-(1-benzyl-1H-indazol-4-yl)-7-bromoimidazo[1,2-a]pyridine-3-carboxamide] | – | 0.236 | 0.0589 | 0.0431

Continued, values first:

IC50 (PDGFR beta [1]) [µM] | IC50 (PDGFR beta [2]) [µM] | IC50 (cFMS) [µM] | IC50 (c-KIT) [µM] | SMILES
1.67 | ≥ 1 | – | – | Cc1cc(C)nc(Cn2nc(C)c3c(NC(=O)c4cnc5cc(OCCN6CCN(C)[C@@H](C)C6)ccn45)cccc32)c1 [Example 34, (S)-7-(2-(3,4-dimethylpiperazin-1-yl)ethoxy)-N-(1-((4,6-dimethylpyridin-2-yl)methyl)-3-methyl-1H-indazol-4-yl)imidazo[1,2-a]pyridine-3-carboxamide]
– | ≥ 1 | 0.0735 | 4.58 | Cc1cccc(Cn2nc(C)c3c(NC(=O)c4cnc5cc(F)ccn45)cccc32)n1 [Example 53, 7-fluoro-N-(3-methyl-1-((6-methylpyridin-2-yl)methyl)-1H-indazol-4-yl)imidazo[1,2-a]pyridine-3-carboxamide]
– | ≥ 1 | 0.0321 | 1.16 | Cc1cccc(Cn2nc(C)c3c(NC(=O)c4cnc5cc(OCCN6CCN(C(=O)OC(C)(C)C)CC6)ccn45)cccc32)n1 [Example 56, tert-Butyl 4-(2-(3-(3-methyl-1-((6-methylpyridin-2-yl)methyl)-1H-indazol-4-ylcarbamoyl)imidazo[1,2-a]pyridin-7-yloxy)ethyl)piperazine-1-carboxylate]
– | ≥ 1 | 0.047 | 5 | Cc1cccc(Cn2nc(C)c3c(NC(=O)c4cnc5cc(O)ccn45)cccc32)n1 [Example 63, 7-hydroxy-N-(3-methyl-1-((6-methylpyridin-2-yl)methyl)-1H-indazol-4-yl)imidazo[1,2-a]pyridine-3-carboxamide]
– | 0.274 | 0.0076 | 0.455 | Cc1cccc(Cn2nc(C)c3c(NC(=O)c4cnc5cc(-c6ccnn6C)ccn45)cccc32)n1 [Example 71, N-(3-methyl-1-((6-methylpyridin-2-yl)methyl)-1H-indazol-4-yl)-7-(1-methyl-1H-pyrazol-5-yl)imidazo[1,2-a]pyridine-3-carboxamide]
– | ≥ 1 | 0.047 | 5 | Cc1cccc(Cn2nc(C)c3c(NC(=O)c4cnc5cc(C(C)O)ccn45)cccc32)n1 (centres unmarked) [Example 76, 7-(1-hydroxyethyl)-N-(3-methyl-1-((6-methylpyridin-2-yl)methyl)-1H-indazol-4-yl)imidazo[1,2-a]pyridine-3-carboxamide]
– | ≥ 1 | 0.0781 | 5 | Cc1cccc(Cn2nc(C)c3c(NC(=O)c4cnc5cc(CCN6CCCC6)ccn45)cccc32)n1 [Example 77, N-(3-methyl-1-((6-methylpyridin-2-yl)methyl)-1H-indazol-4-yl)-7-(2-(pyrrolidin-1-yl)ethyl)imidazo[1,2-a]pyridine-3-carboxamide]
– | ≥ 1 | 0.734 | 5 | COCCOc1ccn2c(C(=O)Nc3cccc4c3c(C)nn4CC3CC3)cnc2c1 [Example 84, N-(1-(cyclopropylmethyl)-3-methyl-1H-indazol-4-yl)-7-(2-methoxyethoxy)imidazo[1,2-a]pyridine-3-carboxamide]
– | 0.137 | 0.026 | 0.205 | O=C(Nc1cccc2c1cnn2Cc1ccccc1)c1cnc2cc(O)ccn12 [Example 92, N-(1-benzyl-1H-indazol-4-yl)-7-hydroxyimidazo[1,2-a]pyridine-3-carboxamide]
– | 0.162 | 0.378 | 0.255 | COCCOc1ccn2c(C(=O)Nc3cccc4c3cnn4CC3CN(C(=O)OC(C)(C)C)CCO3)cnc2c1 (centres unmarked) [Example 123, tert-butyl 2-((4-(7-(2-methoxyethoxy)imidazo[1,2-a]pyridine-3-carboxamido)-1H-indazol-1-yl)methyl)morpholine-4-carboxylate]

— patent publication US10669269B2, “Substituted N-(1H-indazol-4-yl)imidazo[1,2-a]pyridine-3-carboxamide compounds as type III receptor tyrosine kinase inhibitors” (ARRAY BIOPHARMA INC., priority 2010, dated 2020)
